Values joined by “and” are separate entries in the source; they are usually repeats but may differ in a detail not shown here. Equal values may be shown once. “Also recorded” adds a separate entry of the source. Read-outs that look alike come from different tables or passages of the source.
How the values were obtained:
[1] = tested on: PC12 cells expressing huntingtin exon 1 encoding 103 glutamines; parameters: method as in PMID 15262266; details: cited from earlier work
[2] = tested on: ST111/111 striatal cells; type: cell-based; details: 30 min at 33°C
Method: (§1) After the treatment the drugs were removed and the cells washed twice in PBS. The cells were then fixed by incubation in 4% formaldehyde for 15 min, permeabilized by 0.1% Triton X-100 for 5 min and incubated for 30 min with blocking solution (1% bovine albumin in PBS). Coverslips were then incubated in primary antibody (AP229 1:500 dilution) for 2 h at room temperature and washed three times in PBS before a further 1 h in blocking solution containing the secondary antibody (goat anti-rabbit Cy3, Jackson ImmunoResearch, West Grove, PA. USA). After three washes in PBS coverslips were mounted onto glass slides with Vectashield (Burlingame, CA. USA) and the images were analyzed with a laser confocal microscope (Bio-Rad, Hercules, CA. USA) using 20 × objective. Cell death was quantified by scoring the percentage of cells with apoptotic nuclear morphology, i.e. condensed or fragmented nuclei, under the confocal microscope. In each case five to ten randomly selected fields were counted, comprising at least 200 cells, and each experiment was repeated 3 times.

[3] = tested on: ST111/111 striatal cells (Hdh^Q111/Q111, full-length mutant huntingtin); assay: striatal cell line assay: huntingtin localization phenotype (AP229 immunostaining, confocal); type: cell-based, mouse; details: for Percentage of ST111/111 cells showing cytoplasmic/nuclear huntingtin localization comparable to wild-type ST7/7 cells: 30 min at 33°C, mean ± SD of 5–10 fields
Text: To test the hypothesis that compounds, which inhibit the aggregation-promoting property of amino-terminal mutant huntingtin will also rescue effects of full-length mutant huntingtin, we tested the top six inhibitors in a striatal cell-based assay. Mutant Hdh^Q111/Q111 and wild-type Hdh^Q7/Q7 striatal cell lines, […], which have been prepared by transformation with a tsSV40 vector, can be propagated in culture and used for cytological and biochemical comparisons. These cells express full-length mutant or wild-type huntingtin, respectively, with no evidence of truncated amino-terminal fragments, no formation of polyglutamine aggregates and no cell death-producing toxicity. However, like the striatal neurons of Hdh^Q111/Q111 knock-in mice, the ST111/111 cells show nuclear staining of huntingtin when tested with an amino-terminal huntingtin antibody that is sensitive to the conformation of the full-length protein (Figure 5A). By contrast, ST7/7 cells expressing wild type huntingtin show both nuclear and cytoplasmic immunostaining with the same huntingtin antibody (Figure 5A).
Conditionally immortalized wild-type Hdh^Q7/Q7 striatal neuronal progenitor cells (ST7/7) expressing endogenous normal huntingtin, and homozygous Hdh^Q111/Q111 striatal neuronal progenitor cells (ST111/111), expressing endogenous mutant huntingtin with 111-glutamines, have been described previously. The striatal cell lines were grown at 33°C in Dulbecco's modified Eagle's medium (DMEM) supplemented with 10 % fetal bovine serum (FBS), 1% nonessential aminoacids, 2 mM L-glutamine and 400 μg/ml G418 (Geneticin (GIBCO-BRL, Life Technologies, Gaithersburg, MD).
as §1, with “In the immunofluorescence and confocal analysis experiment, wild-type ST7/7 and homozygous mutant ST111/111 cells, grown to confluence on glass coverslips, were treated with 6 different drugs at four different concentrations (0.5, 5, 10 or 50 μM) for 30 min at 33°C. After the” for “After the”

[4] = tested on: HEK 293T cells expressing androgen receptor with 112 glutamines; details: cited from earlier work
[5] = target: T1, Q58-htn 1–171 amino terminal fragment (GST-Q58-Htn cleaved by thrombin) (Homo sapiens, UniProt P42858, INS38QQQQQQQQQQQQQQQQQQQQQQQQQQQQQQQQQQQQQ); assay: in vitro aggregation of amino-terminal mutant huntingtin fragment (filter retardation dot blot); type: biochemical
T1 construct: the amino terminal fragment 1–171 of mutant huntingtin; GST (N, cleaved yes); made in house; host or cells: E. coli BL21 (pGEX-2TK vector)
Method: In our primary screen (Figure 1A), GST-Q58-Htn (20 μg/ml) was mixed with thrombin (0.5 unit/μg GST-Q58-Htn) and immediately dispensed into a 96-well PCR plate containing compounds diluted to a final concentration of 100 μM. Incubation was continued for 24 hours at room temperature to allow aggregate formation. The aggregation was stopped by 2% SDS/10 mM 2-mercaptoethanol followed by boiling for 5 minutes. The mixture was filtered through a cellulose acetate membrane by using a 96-well ELIFA dot blot apparatus. The aggregates retained on the membrane were detected and quantified by immunoblotting and subsequent image analysis. Congo Red, a known huntingtin aggregation inhibitor, was used as the positive control.
A recombinant pGEX-2TK expression vector with cDNA fragment encoding amino terminal 171 amino acids of human huntingtin with a polyglutamine tract of 58 was used to prepare the GST-Q58-htn fusion protein. The GST-Q58-htn was overexpressed in BL21 cells and purified by affinity chromatography over glutathione-sepharose 4B beads (Amersham Pharmacia Biotech). The purified proteins were stored at concentration of 2.0 mg/ml at -80°C.
For primary screening of the chemical library, 1 μl of 4.0 mM small compound stock, diluted from the original plates, was placed in wells of 96-well plates. The fusion protein, GST-Q58-Htn was mixed with thrombin (0.5 unit/1 μg protein) at a concentration of 20 μg/ml in a buffer of 50 mM Tris-HCl, pH 8.0, 100 mM NaCl, 2.5 mM CaCl2, 1.0 mM EDTA. The mixture was immediately distributed into the 96-well plates containing diluted compounds at 40 μl/well and mixed well. The final concentration of the small compounds was 100 μM. After 24 hours incubation at room temperature, the reaction was stopped by adding 10 μl of 10% SDS/50 mM 2-mercaptoethanol to each well followed by boiling in a PCR machine for 5 minutes. The mixture from each well was filtered through a cellulose acetate membrane ((0.2 μm, GE Osmonics labstore, Minnetonka MN) by using a 96-well ELIFA (Pierce Biotech). The aggregates retained on the membrane were detected by a specific anti-huntingtin antibody, HP1 (diluted 1:1000), followed by incubation with peroxidase conjugated anti-rabbit antibody (diluted 1:10,000, Sigma). Signals from SDS insoluble aggregates were scanned and quantified by using ImageMaster Totalab image analysis software (Amersham Pharmacia Biotech). In the secondary screening, all steps were the same except the final concentration of compound in each well was reduced to 10 μM and the GST-Q58-Htn/thrombin mixture was preincubated for 45-minutes at room temperature and clarified by centrifugation at 28,000 × g for 30 minutes before being added to the test wells. For IC50 determinations, the in vitro aggregation assay and signal quantification were performed as in the second screening but varying the final concentration of input drug. The data for each inhibitor were obtained from at least two independent experiments in which every sample was analyzed in triplicate with Prism 3.0 software (Graphpad Software, Inc., San Diego, CA).

T1 sequence (P42858 with tags, fused parts or gaps with the stated changes limits assumed): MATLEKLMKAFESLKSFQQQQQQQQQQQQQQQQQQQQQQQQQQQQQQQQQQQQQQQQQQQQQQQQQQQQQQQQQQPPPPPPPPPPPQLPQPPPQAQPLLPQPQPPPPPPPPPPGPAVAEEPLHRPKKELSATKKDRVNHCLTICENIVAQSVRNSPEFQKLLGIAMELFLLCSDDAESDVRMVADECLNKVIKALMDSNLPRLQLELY

Question: With `CC1=C(O)C(=O)C=C2C1=CC=C1[C@@]2(C)CC[C@@]2(C)[C@@H]3C[C@](C)(C(=O)O)CC[C@]3(C)CC[C@]12C` [Celastrol] as the compound, how does the “protection against polyglutamine toxicity” value [1] read?
Answer: Its value is “partially protective”.

Question: What about the “percentage of dead cells” value ([2]; 5 μM) of the same compound?
Answer: The value was 1%.

Question: What about the “percentage of dead cells” value ([2]; 10 μM) of the same compound?
Answer: Its value is 4%.

Question: What about the “Percentage of ST111/111 cells showing cytoplasmic/nuclear huntingtin localization comparable to wild-type ST7/7 cells” value ([3]; 0.5 μM) of the same compound?
Answer: Its value is 8.7 ± 8.7%.

Question: And the “Percentage of ST111/111 cells showing cytoplasmic/nuclear huntingtin localization comparable to wild-type ST7/7 cells” value ([3]; 5 μM)?
Answer: The value was 69.2 ± 3.8%.

Question: And the “Percentage of ST111/111 cells showing cytoplasmic/nuclear huntingtin localization comparable to wild-type ST7/7 cells” value ([3]; 10 μM)?
Answer: Its value is 78.1 ± 3.5%.

Question: And the “reversal of the mutant huntingtin localization phenotype (in words)” value ([3]; 0.5–50 μM tested)?
Answer: The value was “reversed the mutant phenotype in a dose-dependent manner; also recorded: effective”.

Question: What about the “effect on caspase 3 activation” value [4] of the same compound?
Answer: The value was “blocked caspase 3 activation”.

Question: And the “toxicity in the HEK 293T assay” value [4]?
Answer: Its value is “showed toxicity”.

Question: And the IC50 [5]?
Answer: Its IC50 is < 6 µM and < 15 µM and 3.55 µM.

Question: And the residual aggregate formed ([5]; at the maximum concentration of the dose response (0.01 μM to 500 μM))?
Answer: The residual aggregate formed was “approximately 20%”.

From PMC548150, “Reversal of a full-length mutant huntingtin neuronal cell phenotype by chemical inhibitors of polyglutamine-mediated aggregation” (BMC Neuroscience, 2005)
